Measured values from paper PMC12152147, “DDB1 engagement defines the selectivity of S656 analogs for cyclin K degradation over CDK inhibition” (EMBO Reports, 2025).
Like-named read-outs stand apart in the source and are kept apart here. Blank lines part the entries; values can stand above or below the compound they belong to.

What was measured:
primary AML specimens = assay: Dose-response assays in primary AML specimens (6 days, CellTiterGlo); format: cell-based, human; conditions: Homo sapiens, 144 h, read-out: median IC50 in a panel of 40 primary AMLs, 6 days
Description: Freshly thawed primary AML specimens were used for chemical screens. Cryopreserved cells were thawed at 37 °C in IMDM containing 20% FBS and DNase I (100 μg/mL). Cells were resuspended in IMDM supplemented with 15% BIT (BSA, insulin, transferrin; StemCell Technologies), 100 ng/mL SCF, 50 ng/mL FLT3L, 20 ng/mL IL3, 20 ng/mL G-CSF, 10^−4 mol/L b-mercaptoethanol, gentamicin (50 μg/mL), ciprofloxacin (10 μg/mL), SR1 (500 nmol/L) and UM729 (500 nmol/L). Cells were plated in 384-well white plates, 5000 cells per well in 50 μL. Compounds were dissolved in DMSO, diluted in media immediately before use and added to seeded cells at the unique concentration of 1 μM. Control wells received DMSO (0.1%) only. Cell viability was evaluated after 6 days in culture using the CellTiterGlo assay according to the manufacturer’s instruction. Percentage of inhibition for dose response curves was calculated as 100 – (100 × (mean luminescence [compound]/mean luminescence [DMSO])). Dose response curves were generated using nonlinear regression in GraphPad Prism version.
Dose-response assays in primary AML specimens were performed as in chemical screen (see above) with the exception that compounds were tested in serial dilution (8 dilutions, 1:4, 10 μM down to 0.5 nM). Dose-response assays in OCI-AML5 cell line were conducted similarly with the following modifications: 300 cells per well were seeded in 50 μL of cell line media and cell viability was evaluated after 4 days in culture.

OCI-AML5 cells = assay: Dose-response proliferative assay in OCI-AML5 (4 days, CellTiterGlo); format: cell-based, H. sapiens; conditions: for IC50: Homo sapiens, OCI-AML-5, 96 h, 4 days incubation, read-out: IC50 OCI-AML5
How it was run: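 OCI-AML5 cells in αMEM, 10% heat-inactivated FBS plus 10 ng/mL GM-CSF, 300 cells/well, exposed to 8-point 1:4 serial dilutions (10 μM down to 0.5 nM). Viability read after 4 days in culture at 37 °C, 5% CO2.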

cyclin KeGFP = assay: Cyclin KeGFP reporter system (eGFP/mCherry MFI by flow cytometry);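 note: 10 μM compound for 3 h relative to DMSO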; format: cell-based, H. sapiens; conditions: cyclin K-eGFP reporter
How it was run: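 OCI-AML5 clone G7 carrying lentiviral cyclin KeGFP/mCherry reporter. eGFP and mCherry geometric MFI measured by flow cytometry; eGFP/mCherry ratio normalized to DMSO-treated cells.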

CDK1 = target: T1, CDK1 (Homo sapiens, UniProt P06493); assay: CDK1 in vitro kinase activity, single concentration 1 μM; format: biochemical; conditions: single concentration 1 μM
T1 construct: purchased BPS Bioscience 79597
T1 sequence (P06493 whole entry): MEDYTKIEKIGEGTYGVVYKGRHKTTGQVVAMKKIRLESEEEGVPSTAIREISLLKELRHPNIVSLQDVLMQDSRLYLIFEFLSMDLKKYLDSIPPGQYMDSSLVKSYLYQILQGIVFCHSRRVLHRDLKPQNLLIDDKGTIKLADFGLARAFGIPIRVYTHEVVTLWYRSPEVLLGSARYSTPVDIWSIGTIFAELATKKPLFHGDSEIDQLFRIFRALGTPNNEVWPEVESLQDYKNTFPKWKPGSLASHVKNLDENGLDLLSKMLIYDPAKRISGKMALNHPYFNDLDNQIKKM
T1 sequence (P14635 whole entry partner): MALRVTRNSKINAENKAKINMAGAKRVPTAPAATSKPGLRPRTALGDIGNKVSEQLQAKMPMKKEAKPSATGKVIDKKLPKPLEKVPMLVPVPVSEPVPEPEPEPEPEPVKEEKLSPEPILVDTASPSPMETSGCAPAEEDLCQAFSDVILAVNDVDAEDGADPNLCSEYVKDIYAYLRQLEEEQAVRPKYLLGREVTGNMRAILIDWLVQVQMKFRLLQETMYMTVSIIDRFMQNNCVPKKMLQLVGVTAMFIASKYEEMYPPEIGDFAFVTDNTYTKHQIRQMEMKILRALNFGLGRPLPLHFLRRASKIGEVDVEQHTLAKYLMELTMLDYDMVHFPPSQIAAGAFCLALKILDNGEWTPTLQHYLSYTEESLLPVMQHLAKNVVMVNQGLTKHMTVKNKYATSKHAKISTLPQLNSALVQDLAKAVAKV
Description: (§1) Kinase activity was assessed using the kinase assay kits from BPS Bioscience for CDK1, CDK9 and CDK12 with Kinase Glo MAX in duplicates. Compounds were tested at a single concentration of 1 μM for CDK1 and CDK9 activity, and in a dilution ranging from 0.64 nM to 50 μM for CDK12 activity. Chemiluminescence was read using the Neo Synergy BioTek plate reader.

CDK9/CyclinT = target: T2, CDK9/CyclinT (Homo sapiens, UniProt P50750); assay: CDK9/CyclinT in vitro kinase activity, single concentration 1 μM; format: biochemical; conditions: single concentration 1 μM
T2 construct: purchased BPS Bioscience 79628
T2 sequence (P50750 whole entry): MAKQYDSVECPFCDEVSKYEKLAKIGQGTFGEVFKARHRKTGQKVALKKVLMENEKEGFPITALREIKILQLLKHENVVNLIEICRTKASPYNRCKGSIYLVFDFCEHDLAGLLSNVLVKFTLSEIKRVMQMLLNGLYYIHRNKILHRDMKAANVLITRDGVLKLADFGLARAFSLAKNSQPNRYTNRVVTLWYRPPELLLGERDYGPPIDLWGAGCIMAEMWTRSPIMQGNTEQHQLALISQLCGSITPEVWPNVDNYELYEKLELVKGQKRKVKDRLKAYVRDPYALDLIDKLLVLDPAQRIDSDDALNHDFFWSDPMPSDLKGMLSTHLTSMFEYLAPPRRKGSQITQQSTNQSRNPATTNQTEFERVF
T2 sequence (O60563 whole entry partner): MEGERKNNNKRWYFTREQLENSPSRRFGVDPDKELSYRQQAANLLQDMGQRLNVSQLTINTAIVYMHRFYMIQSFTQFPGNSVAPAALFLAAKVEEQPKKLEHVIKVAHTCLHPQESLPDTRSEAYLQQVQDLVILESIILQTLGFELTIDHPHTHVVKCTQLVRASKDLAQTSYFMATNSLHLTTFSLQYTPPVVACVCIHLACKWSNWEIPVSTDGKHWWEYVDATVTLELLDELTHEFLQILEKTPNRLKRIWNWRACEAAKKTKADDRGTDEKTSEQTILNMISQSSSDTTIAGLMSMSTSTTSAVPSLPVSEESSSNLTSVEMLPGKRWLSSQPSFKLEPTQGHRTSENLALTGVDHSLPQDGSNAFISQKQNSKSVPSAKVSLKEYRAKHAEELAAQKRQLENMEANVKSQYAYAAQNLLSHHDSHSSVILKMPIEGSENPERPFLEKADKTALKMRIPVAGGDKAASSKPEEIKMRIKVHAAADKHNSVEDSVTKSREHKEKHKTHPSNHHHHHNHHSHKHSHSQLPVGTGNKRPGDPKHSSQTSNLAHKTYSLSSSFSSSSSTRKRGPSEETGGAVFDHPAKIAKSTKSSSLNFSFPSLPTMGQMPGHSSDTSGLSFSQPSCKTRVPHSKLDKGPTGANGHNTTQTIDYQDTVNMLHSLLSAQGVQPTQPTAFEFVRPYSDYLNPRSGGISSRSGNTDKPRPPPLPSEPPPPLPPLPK
Description: as §1

[1] = system: OCI-AML5 cells expressing shRNAs targeting CDK1, 2, 4, 7, 9, cyclin K; assay: Dose response in OCI-AML5 expressing shRNAs targeting CDK1, 2, 4, 7, 9, cyclin K or control; format: cell-based, H. sapiens; conditions: for IC50: Homo sapiens
[2] = system: OCI-AML5 cells expressing shRNA targeting CUL4A or CUL4B; assay: Dose response in OCI-AML5 expressing shRNAs targeting CUL4A, CUL4B or control; format: cell-based, H. sapiens; conditions: ratio of IC50 in shCUL4A vs shCTRL OCI-AML5 cells
[3] = system: OCI-AML5 and U937 cell lines; assay: Synergistic interaction assay with THZ531 (Bliss score); format: cell-based
Source text: 3. It may be worthwhile to investigate whether the CDK12/13 inhibitor THZ531 could synergize with S656 or analogues like UOM-005636 that specifically degrade Cyclin K, in combination cytotoxicity assays, assessing selective suppression of AML viability over normal cells. Both […]
inhibiting CDK12, and S656 / UOM-005636 by degrading Cyclin K. Similar synergistic effects were observed by Katharina et al., where THZ531 promoted prostate ca ncer cell sensitivity to androgen deprivation therapy [Frei, K et. al. Inhibition of the Cyclin K-CDK12 complex induces DNA damage and increases the effect of androgen deprivation therapy in prostate cancer. Int J […]
Indeed, THZ531 is a covalent CDK12/13 inhibitor that specifically binds to the kinase pocket of […]
pocket of CDK12, and that pre-incubation with THZ531 competes with S656-mediated Cyclin K degradation (see Figure 5E).
We performed a synergistic interaction assay between THZ531 and S656 or UOM-005636 in OCI-AML5 and U937 cell lines (see below). […]
interactions between THZ531 and our cyclin K degrader molecules. This is likely due to both drugs competing for the same binding site, rather than acting through complementary pathways. […]

[4] = target: T3, OCI-AML5 total protein extracts (cyclin K, CDKs, DDB1) (Homo sapiens, UniProt P21439); assay: Pull-down with immobilized probes and quantitative mass spectrometry; format: binding, H. sapiens; conditions: protein ABCB4 (P21439)
T3 construct: endogenous in cells; host or cells: OCI-AML5 total protein extract
T3 sequence (P21439 whole entry): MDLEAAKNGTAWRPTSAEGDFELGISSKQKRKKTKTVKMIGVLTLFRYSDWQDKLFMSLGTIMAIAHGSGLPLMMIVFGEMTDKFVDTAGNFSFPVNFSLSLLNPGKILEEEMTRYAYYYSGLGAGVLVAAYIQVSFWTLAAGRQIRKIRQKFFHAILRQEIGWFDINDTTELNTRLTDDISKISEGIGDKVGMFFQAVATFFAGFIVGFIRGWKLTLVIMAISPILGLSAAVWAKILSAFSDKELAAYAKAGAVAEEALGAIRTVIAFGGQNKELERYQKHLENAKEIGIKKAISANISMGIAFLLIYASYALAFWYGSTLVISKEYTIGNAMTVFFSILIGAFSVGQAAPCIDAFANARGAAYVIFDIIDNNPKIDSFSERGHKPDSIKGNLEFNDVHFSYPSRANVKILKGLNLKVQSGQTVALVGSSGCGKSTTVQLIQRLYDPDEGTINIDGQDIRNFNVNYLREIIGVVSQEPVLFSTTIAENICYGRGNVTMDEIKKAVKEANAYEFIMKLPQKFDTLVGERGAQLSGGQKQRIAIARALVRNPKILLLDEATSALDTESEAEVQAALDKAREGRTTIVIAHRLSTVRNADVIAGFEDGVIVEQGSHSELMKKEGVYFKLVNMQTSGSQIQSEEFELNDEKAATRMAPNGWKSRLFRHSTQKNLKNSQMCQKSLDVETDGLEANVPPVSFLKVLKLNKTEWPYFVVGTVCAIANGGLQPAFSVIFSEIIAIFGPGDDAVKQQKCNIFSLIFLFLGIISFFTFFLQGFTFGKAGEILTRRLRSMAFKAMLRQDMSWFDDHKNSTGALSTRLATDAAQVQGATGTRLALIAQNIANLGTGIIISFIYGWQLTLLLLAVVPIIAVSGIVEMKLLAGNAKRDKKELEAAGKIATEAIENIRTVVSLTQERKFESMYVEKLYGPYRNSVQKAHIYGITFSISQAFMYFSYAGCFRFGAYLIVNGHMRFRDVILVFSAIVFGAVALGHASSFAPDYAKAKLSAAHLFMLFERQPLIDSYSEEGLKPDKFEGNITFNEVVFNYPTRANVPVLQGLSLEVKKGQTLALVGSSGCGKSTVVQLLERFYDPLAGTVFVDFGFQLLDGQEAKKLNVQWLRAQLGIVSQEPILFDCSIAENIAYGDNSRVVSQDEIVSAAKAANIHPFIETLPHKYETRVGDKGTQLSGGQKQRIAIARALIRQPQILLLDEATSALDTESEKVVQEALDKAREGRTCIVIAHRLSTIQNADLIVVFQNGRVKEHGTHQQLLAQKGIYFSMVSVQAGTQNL
Description: (§2) Probe compounds were immobilized through their terminal amine on NHS-sepharose beads as previously described (Médard et al, [2015]). The prepared beads were then washed in PBS and equilibrated in Triton X-100 buffer. For each replicate, 1–2 mg of total proteins (2 mg/ml) were incubated end-over-end with 25 μl of beads overnight at 4 °C in low protein binding microtubes (Sarstedt). The samples were then washed twice in Triton X-100 buffer, transferred to new microtubes and further washed six times in PBS including another microtube transfer at the last wash. Beads pellets were resuspended in 50 mM ammonium bicarbonate and subjected to reduction, alkylation and tryptic digest as described above. Peptides were separated on an home-made reversed-phase column (150-μm i.d. by 200 mm) with a 56-min gradient from 10 to 30% ACN-0.2% FA and a 600-nl/min flow rate on a Easy nLC-1200 connected to a Exploris 480 (ThermoFisher Scientific, San Jose, CA). Each full MS spectrum acquired at a resolution of 120,000 was followed by tandem-MS (MS-MS) spectra acquisition on the most abundant multiply charged precursor ions for 3 s. Tandem-MS experiments were performed using higher energy collision dissociation (HCD) at a collision energy of 34%. The data were processed using PEAKS X Pro (Bioinformatics Solutions, Waterloo, ON) and a Uniprot human database (20366 entries). Mass tolerances on precursor and fragment ions were 10 ppm and 0.01 Da, respectively. Fixed modification was carbamidomethyl (C). Variable selected posttranslational modifications were acetylation (N-ter), oxidation (M), deamidation (NQ), phosphorylation (STY). The data were visualized with Scaffold 5.0 (protein threshold, 99%, with at least 2 peptides identified and a false-discovery rate [FDR] of 1% for peptides).
(§3) Differential Enrichment analysis of Proteomics data (DEP) package (Zhang et al, [2018]) in R was used to analyze the data (excluding proteins identified based on a single peptide), including data filtering, normalization, imputation of missing values and statistical testing of differentially expressed proteins.

[5] = target: T4, OCI-AML5 total protein extracts (cyclin K, CDKs, DDB1) (Homo sapiens, UniProt P45844); assay: as above; format: binding, H. sapiens; conditions: protein ABCG1 (P45844)
T4 construct: endogenous in cells; host or cells: OCI-AML5 total protein extract
Description: as §2, §3

[6] = target: T5, OCI-AML5 total protein extracts (cyclin K, CDKs, DDB1) (Homo sapiens, UniProt Q6UXT9); assay: as above; format: binding, H. sapiens; conditions: protein ABHD15 (Q6UXT9)
T5 construct: endogenous in cells; host or cells: OCI-AML5 total protein extract
T5 sequence (Q6UXT9 24-468): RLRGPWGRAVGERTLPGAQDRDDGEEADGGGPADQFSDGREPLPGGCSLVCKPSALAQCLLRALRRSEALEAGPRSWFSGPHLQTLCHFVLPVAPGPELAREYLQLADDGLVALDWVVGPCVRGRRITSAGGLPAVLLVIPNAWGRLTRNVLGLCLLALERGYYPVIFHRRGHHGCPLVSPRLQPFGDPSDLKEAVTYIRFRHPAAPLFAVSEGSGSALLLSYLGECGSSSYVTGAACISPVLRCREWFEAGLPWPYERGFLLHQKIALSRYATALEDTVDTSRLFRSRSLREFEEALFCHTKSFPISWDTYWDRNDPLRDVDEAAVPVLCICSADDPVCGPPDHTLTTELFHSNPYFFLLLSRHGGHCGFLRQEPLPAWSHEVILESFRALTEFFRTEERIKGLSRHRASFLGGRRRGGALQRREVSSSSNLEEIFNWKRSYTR
Description: as §2, §3

[7] = target: T6, OCI-AML5 total protein extracts (cyclin K, CDKs, DDB1) (Homo sapiens, UniProt Q86UQ4); assay: as above; format: binding, H. sapiens; conditions: protein ABCA13 (Q86UQ4)
T6 construct: endogenous in cells; host or cells: OCI-AML5 total protein extract
Description: as §2, §3

[8] = target: T7, OCI-AML5 total protein extracts (cyclin K, CDKs, DDB1) (Homo sapiens, UniProt Q96IU4); assay: as above; format: binding, H. sapiens; conditions: protein ABHD14B (Q96IU4)
T7 construct: endogenous in cells; host or cells: OCI-AML5 total protein extract
T7 sequence (Q96IU4 1-210): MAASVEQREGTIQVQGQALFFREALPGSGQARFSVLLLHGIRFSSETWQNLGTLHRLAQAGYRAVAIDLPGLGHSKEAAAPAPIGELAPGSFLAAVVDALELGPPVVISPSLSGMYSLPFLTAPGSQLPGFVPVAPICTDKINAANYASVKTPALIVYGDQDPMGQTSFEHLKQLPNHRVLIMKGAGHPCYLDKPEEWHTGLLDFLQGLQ
Description: as §2, §3

IC50 (OCI-AML5 cells): 85 nM | inhibition at 1 µM (CDK1): 69% | inhibition at 1 µM (CDK9/CyclinT): 57% | IC50 ([1]; OCI-AML-5, OCI-AML5 expressing shRNA CCNK (cyclin K), read-out: IC50 shRNA CCNK): 21.7 nM | IC50 ([1]; OCI-AML-5, OCI-AML5 expressing shRNA CDK1, read-out: IC50 shRNA CDK1): 112 nM | IC50 ([1]; OCI-AML-5, OCI-AML5 expressing shRNA CDK2, read-out: IC50 shRNA CDK2): 142 nM | IC50 ([1]; OCI-AML-5, OCI-AML5 expressing shRNA CDK4, read-out: IC50 shRNA CDK4): 140 nM | IC50 ([1]; OCI-AML-5, OCI-AML5 expressing shRNA CDK7, read-out: IC50 shRNA CDK7): 140 nM | IC50 ([1]; OCI-AML-5, OCI-AML5 expressing shRNA CDK9, read-out: IC50 shRNA CDK9): 101 nM
SMILES: O=C(Cc1ccc(-c2ccccn2)cc1)Nc1ncc(SCc2cccnc2)s1 [UOM-005636]
IC50 (primary AML specimens): 154 nM | times more potent than S656 (OCI-AML5 cells; OCI-AML5 cell line and panel of 40 primary AMLs): 8 | % degradation cyclin K-eGFP (cyclin KeGFP): 80% | class based on cellular selectivity ([1]; IC50 in shRNA OCI-AML5 cells and cyclin KeGFP degradation): Class I (effective cyclin K MGDs (decreased IC50 in cyclin K depleted cells only, and >65% degradation of cyclin KeGFP)) | Class ([1]; class from shRNA IC50 profile and cyclin K-eGFP degradation): 1 | Ratio shCUL4A/shCTRL [2]: 2.3 | synergistic interaction with THZ531 (Bliss score) [3]: moderate to very low synergistic

SMILES: CN(CCOCCOCCN)c1ccc(CC(=O)Nc2nnc(SCc3cccnc3)s2)cc1 [UOM-005839]
IC50 (OCI-AML5 cells): > 10000 nM | UOM-005839_centered ([4]; centered abundance): 0.902 | UOM-005839_vs_Beads_ratio ([4]; immobilized probe vs beads): -2 | UOM-005839_centered ([5]; centered abundance): -1.3 | UOM-005839_vs_Beads_ratio ([5]; immobilized probe vs beads): 1.31 | UOM-005839_centered ([6]; centered abundance): 0.886 | UOM-005839_vs_Beads_ratio ([6]; immobilized probe vs beads): 4.56 | UOM-005839_centered ([7]; centered abundance): 0.126 | UOM-005839_vs_Beads_ratio ([7]; immobilized probe vs beads): -0.0556 | UOM-005839_centered ([8]; centered abundance): 0.505 | UOM-005839_vs_Beads_ratio ([8]; immobilized probe vs beads): 3.62
